Data on two compounds can be found in patent US10533989B2, “Metabolomics in pneumonia and sepsis” (University of Pittsburgh—Of the Commonwealth System of …, priority 2012, dated 2020).

The assay deals with differentiated Thp1 monocytes. Put plainly: In-vitro monocyte stimulation, TNFα and IL1β in supernatant by ELISA. Format: cell-based, human. Particulars: for IL-1β in supernatant vs PBS control / TNFα in supernatant vs PBS control: differentiated Thp1 monocytes, 16 h, beta-pseudouridine 10 mM, allantoin 0.3 mg/mL. An excerpt: Among significant metabolites (p<0.05, q<0.1) in our agnostic approach, five nucleic acid metabolites (e.g., beta-pseudouridine, 1-methyladenosine, N-2-methylguanosine, N-6-carbamoylthreonyladenosine, and allantoin) were identified for in vitro monocyte stimulation experiments. See, Table 2. These nucleic acid metabolites may function as damage-associated molecular patterns, and stimulate TNFα and IL1β similar to HMGB-1 and LPS. Bleiblo et al. (2012) “The role of immunostimulatory nucleic acids in septic shock” Int J Clin Exp Med 5:1-23
THP-1 cells (American Type Cell Collection, Manassas, Va., USA) were cultured in suspension in RPMI1640 media (Gibco, Grand Island, N.Y., USA) supplemented with 10% fetal bovine serum, 2 mM L-glutamine, 100 U/mL penicillin, 100 […], and 100 µM sodium pyruvate (all from Gibco). To differentiate the monocytes, 0.33×10^6 cells/mL were suspended in media and treated with 5 ng/mL PMA and then plated. After 48 h, adhered cells were washed three times in PBS and then treated for 16 h with compounds of interest at concentrations described. All compounds were dissolved in endotoxin-free water.
Endotoxin was measured at 61.5-153.8 pg per 250 µL treatment of 10 mM dose beta-pseudouridine, compared to 4,000 pg/mL in LPS-positive control. After 16 h media was collected and TNFα and IL1β levels determined by ELISA (R&D Systems, Minneapolis, Minn., USA) according to manufacturer's instructions. Experiments were repeated after treatment with viral inhibitory peptide of TLR4 (VIPER) and polymyxin B (PMB).
In general terms: In an ELISA, binding on a coated surface is turned into a signal by an enzyme label.

As for `NC(=O)NC1NC(=O)NC1=O` (centres unmarked) [allantoin], the “IL-1β in supernatant vs PBS control” value is recorded as “significantly increased”.
On to `O=c1[nH]cc([C@@H]2O[C@H](CO)[C@@H](O)[C@H]2O)c(=O)[nH]1` [pseudouridine], for which the “IL-1β in supernatant vs PBS control” value is given as “increased” and the “TNFα in supernatant vs PBS control” value is “increased”. For the same compound, the “Cytokine (TNFα) stimulation, concentration dependence” value (beta-pseudouridine 0.0001-10 mM, 16 h (FIG. 5C)) is reported as “concentration-dependent”. In addition, where the note is “beta-pseudouridine 10 mM with VIPER (TLR4-antagonist), 16 h (FIG. 5D)”, the “Cytokine (TNFα) levels in the presence of TLR4-receptor inhibitor VIPER” value was “significantly abrogated”. Further, for the setting “beta-pseudouridine 10 mM with polymyxin B (PMB; 10 μM), 16 h (FIG. 5D)”, the “Cytokine (TNFα) levels in the presence of polymyxin B” value is recorded as “remained significantly elevated”. In addition, where the note is “listed as beta-pseudouridine”, the “IL-1β in supernatant vs PBS control” value is on record as “stimulated significant release” and the “TNFα in supernatant vs PBS control” value is on record as “stimulated significant release”.
